Data as given in patent publication US8865894B2, “Oxazolidin-2-one compounds and uses thereof” (Novartis AG, priority 2012, dated 2014).

What was measured:
Assay type in all cases: cell-based
mTOR = target: T1, mTOR (Mus musculus, UniProt Q9JLN9); assay: Cellular assay mTOR (phospho-T389 S6K1 SureFire in TSC1-/- MEF cells); details: TSC1-/- MEF cells; read-out: mTOR S6K(T389)_TSC1ko/ IC50
T1 construct: endogenous in cells; host or cells: TSC1-/- MEF (mouse embryo fibroblasts)
Excerpt: A cell based assay (384-well format) was developed for determination of compound effects on cellular mTOR kinase activity in MEF (mouse embryo fibroblasts) cells derived from mice lacking TSC1 (Tuberosclerosis Complex1) a potent suppressor of mTOR kinase activity. Due to lack of TSC1 the mTOR kinase is constitutively activated resulting in permanent phosphorylation of Thr 389 of S6 kinase 1 (S6K1) which is one of the downstream targets of mTOR.
Using a SureFire Kit that enables to determine the phosphorylation of Thr389 on the S6K1 an assay was developed, validated and implemented in the Alpha-Screen format that allows the quantitative determination of phospho-T389 of S6K1 in cell lysates. […] These were in agreement with those values obtained with the biochemical mTOR ATP-binding assay enabling a quantitative comparison of potency of mTOR inhibitors.
TSC1−/− MEFs cells (Kwiatkowski, D. J., Zhang, H., Bandura, J. L., Heiberger, K. M., Glogauer, M., el-Hashemite, N., and Onda, H. (2002) Hum. Mol. Genet. 11, 525-534) were cultured in DMEM high glucose medium supplemented with 10% FBS (Invitrogen), 2 mM Glutamine and 1% (w/v) Penicillin/Streptomycin at 37° C., 5% CO2.
The SureFire kit for determination of P70S6kinase phosphorylation was purchased from Perkin Elmer (p70S6K p-T389, #TGR70S50K) and the assay was performed according to the instructions of the supplier and according to the generic method for SureFire assays. Shortly, 5 μL cell lysate per well were transferred to 384-well white proxy-plates (for luminescent readout) and mixed with […] and […] (final volume: 12 μL). After 3 h incubation in the dark at RT luminescence was read with the Envision Reader (Perkin Elmer). Untreated cells were used as control (high control) and cells treated with 3 μM BEZ235 were used as low control. The assay window between the signals obtained for the high and the low controls were defined as 100% and compound effects were expressed as percent inhibition. IC50 values were calculated from the dose response curves by graphical extrapolation.

A2058 cells = assay: Cell cycle G2/M arrest Cytospin assay to detect tubulin binding (off-target); set-up: key: 0=no condensed DNA observed (indicating no off target activity); 1=(indicating weak off target activity); 2=(indicating medium off target activity); 3=large amount of condensed DNA observed (indicating strong off-target activity); details: 5 μM test item, 24 hours
Method: The off-target effect (evidence of tubulin binding) was measured as follows.
Cell cycle G2/M arrest Cytospin assay to detect tubulin binding (off-target) binding activities of MAPP derivatives: 5×10^5 cells A2058 cells were plated in 6-well cluster, with 2 mL of DMEM (high Glucose containing 1% sodium pyruvate, 1% glutamin and 10% FCS). 18 hours later, the test items were added at a concentration of 5 μM (spiking 1 μL of a 10 mM solution of the test item). 24 hours later, the cells were trypsinized and transferred into a 15 mL conical tube. Cells are then pelleted by centrifugation, and resuspended with PBS/0 (containing 10% FCS). Cells are counted with a CASY counter, and each samples equilibrated to 1×10^6 cells/mL. […] The staining was visually assessed for the presence of condensed DNA and given a score where 0=no condensed DNA observed (indicating no off target activity), 1=(indicating weak off target activity), 2=(indicating medium off target activity), 3=large amount of condensed DNA observed (indicating strong off-target activity).

[1] = target: T2, human PI3Kalpha p110 catalytic subunit (Rat-1 pBABEpuro Myr-HA-hp110alpha) (Homo sapiens, UniProt P42336); assay: Cellular assay PI3Kalpha (p-Akt(S473) SureFire, Rat-1_PI3Kalpha cells); details: 1 h compound treatment, read-out: Rat1-PI3Ka/ IC50
T2 construct: Myr (myristoylation signal) (N); HA (N); expressed in transfected cells; host or cells: Rat-1
Excerpt: (§1) AlphaScreen (Amplified Luminescent Proximity Homogeneous Assay, ALPHA, Perkin Elmer) is a non-radioactive bead-based proximity assay technology to study biomolecular interactions in a homogenous microtiter plate format. The brand name SureFire denotes AlphaScreen assays that are adapted to quantify the phosphorylation of endogenous cellular proteins in cell lysates, by using matched antibody pairs, which consist of an anti-phospho-kinase and an anti-kinase antibody. The assay allows characterization of kinase signaling in cells as well as measurement of kinase inhibitor effects. The AlphaScreen technology provides several advantages over standard assay techniques such as ELISA, as it avoids time-consuming washing procedures and reduces plate handling. Furthermore, it is miniaturizable at least to a 384-well format and provides sensitivity down to the femtomolar range, dependent on the affinity of the antibodies included in the individual AlphaScreen SureFire assay kit. High sensitivity is reached by an intrinsic amplification mechanism, which involves production of singlet oxygen molecules. SureFire assay kits are commercially available for specific targets and include pairs of validated antibodies (PerkinElmer). This report describes common procedures applied for AlphaScreen SureFire assays and respective semi-automated steps for routine kinase inhibitor profiling in cell-based assays.
(§2) The Rat-1 cell lines stably overexpressing activated PI3K class I isoforms Rat-1 pBABEpuro Myr-HA-hp110 delta (Rat-1_PI3Kdelta) and Rat-1 pBABEpuro Myr-HA-hp110alpha (Rat-1_PI3Kalpha) and Rat-1 pBABEpuro Myr-HA-hp110 beta (Rat-1_PI3beta) were prepared as described (Maira S M, Stauffer F, Brueggen J, Furet P, Schnell C, Fritsch C, Brachmann S, Chène P, de Pover A, Schoemaker K, Fabbro D, Gabriel D, Simonen M, Murphy L, Finan P, Sellers W, García-Echeverría C (2008), Mol Cancer Ther. 7:1851-63 and Maira S M, Pecchi S, Brueggen J, Huh K, Schnell C, Fritsch C, Nagel T, Wiesmann M, Brachmann S, Dorsch M, Chène P, Schoemaker K, De Pover A, Menezes D, Fabbro D, Sellers W, García-Echeverría C, Voliva C F (2011), Mol. Cancer Ther., accepted). All cell lines were cultivated in complete growth medium (DMEM high glucose, 10% (v/v) fetal bovine serum, 1% (v/v) MEM NEAA, 10 mM HEPES, 2 mM L-glutamine, puromycin (10 μg/mL for Rat-1_PI3Kdelta and Rat-1_PI3Kalpha, 4 ug/mL for Rat-1_PI3beta), 1% (v/v) Pen/Strep) to 90% confluency at 37° C./5% CO2/90% humidity in a humidified CO2 incubator and were split twice a week.
(§3) The following materials were used for p-AKT(S473) detection in Rat-1 cell lysates: Dulbecco's modified Eagle's medium (DMEM) high glucose (Gibco Invitrogen, Basel, Switzerland, Cat. No. 41965), Heat Inactivated Fetal Bovine Serum, Qualified (HI FBS; Gibco Invitrogen, Basel, Switzerland, Lot. No. 16140), MEM non essential amino acids (NEAA; Gibco Invitrogen, Basel, Switzerland, Cat. No. 11140), HEPES (Gibco Invitrogen, Basel, Switzerland, Cat. No. 15630), Penicillin/Streptomycin (Pen/Strep, 100×; Gibco Invitrogen, Basel, Switzerland, Cat. No. 15140-122), L-Glutamine (Gibco Invitrogen, Basel, Switzerland, Cat. No. 25030), Puromycin (Sigma Aldrich, Buchs, Switzerland, Cat. No. P9620), DMSO (MERCK, Dietikon, Switzerland, Cat. No. 8.02912.2500), H2O, MilliQ-H2O unless otherwise stated (MILLIPORE QGARDOOR1, Millipore, Zug, Switzerland), Bovine serum albumine (BSA; Sigma Aldrich, Buchs, Switzerland Cat. No. A8412), SureFire p-Akt 1/2 (Ser473) Assay Kit (PerkinElmer, Schwerzenbach, Switzerland, Cat. No. TGRAS50K).
(§4) The p-Akt(S473) SureFire assay measures the phosphorylation of endogenous cellular Akt 1/2 at Ser473 in cell lysates. Using Rat-1 cells stably expressing myr-HA-tagged versions of the human PI3Kdelta, PI3Kalpha, or PI3Kbeta p110 catalytic subunit isoforms, the assay was developed as a two-plate protocol in a 384-well format.

[2] = target: T3, human PI3Kbeta p110 catalytic subunit (Rat-1 pBABEpuro Myr-HA-hp110 beta) (Homo sapiens, UniProt P42338); assay: Cellular assay PI3Kbeta (p-Akt(S473) SureFire, Rat-1_PI3beta cells); details: p-Akt(S473), 1 h compound treatment; read-out: Rat1-PI3Kb/ IC50
T3 construct: Myr (myristoylation signal) (N); HA (N); expressed in transfected cells; host or cells: Rat-1
Excerpt: as §1, §2, §3, §4

[3] = target: T4, human PI3Kdelta p110 catalytic subunit (Rat-1 pBABEpuro Myr-HA-hp110 delta) (Homo sapiens, UniProt O00329); assay: Cellular assay PI3Kdelta (p-Akt(S473) SureFire, Rat-1_PI3Kdelta cells); details: 1 h compound treatment, read-out: Rat1-PI3Kd/ IC50
T4 construct: Myr (myristoylation signal) (N); HA (N); expressed in transfected cells; host or cells: Rat-1
Excerpt: as §1, §2, §3, §4

T3 sequence (P42338 whole entry): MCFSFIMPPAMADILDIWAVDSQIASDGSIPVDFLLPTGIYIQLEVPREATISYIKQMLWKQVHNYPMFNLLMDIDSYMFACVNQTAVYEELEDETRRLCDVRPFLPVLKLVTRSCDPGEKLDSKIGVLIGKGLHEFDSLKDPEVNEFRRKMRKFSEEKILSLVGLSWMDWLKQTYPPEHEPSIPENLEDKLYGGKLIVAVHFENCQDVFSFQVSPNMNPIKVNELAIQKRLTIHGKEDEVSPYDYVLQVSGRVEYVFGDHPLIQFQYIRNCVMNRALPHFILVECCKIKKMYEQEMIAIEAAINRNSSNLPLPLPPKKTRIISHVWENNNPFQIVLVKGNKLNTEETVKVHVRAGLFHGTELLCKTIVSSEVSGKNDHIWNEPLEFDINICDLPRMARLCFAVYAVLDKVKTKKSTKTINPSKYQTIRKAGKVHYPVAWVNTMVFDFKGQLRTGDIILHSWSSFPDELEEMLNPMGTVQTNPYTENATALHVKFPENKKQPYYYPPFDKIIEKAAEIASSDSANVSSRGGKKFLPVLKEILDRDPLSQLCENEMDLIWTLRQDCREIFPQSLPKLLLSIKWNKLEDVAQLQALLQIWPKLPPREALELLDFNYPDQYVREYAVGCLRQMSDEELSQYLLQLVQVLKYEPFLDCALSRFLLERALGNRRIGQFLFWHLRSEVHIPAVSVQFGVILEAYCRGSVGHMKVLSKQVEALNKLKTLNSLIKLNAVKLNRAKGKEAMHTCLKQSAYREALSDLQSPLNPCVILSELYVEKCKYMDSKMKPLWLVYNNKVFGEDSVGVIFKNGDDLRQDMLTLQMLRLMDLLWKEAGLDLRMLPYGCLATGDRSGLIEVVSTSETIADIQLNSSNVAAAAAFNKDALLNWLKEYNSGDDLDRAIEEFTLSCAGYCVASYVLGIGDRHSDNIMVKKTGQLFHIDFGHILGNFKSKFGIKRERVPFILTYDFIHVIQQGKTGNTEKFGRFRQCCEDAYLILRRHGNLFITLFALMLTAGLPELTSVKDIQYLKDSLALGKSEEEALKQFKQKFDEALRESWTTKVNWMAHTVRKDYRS
T3 sequence (Q63787 whole entry partner): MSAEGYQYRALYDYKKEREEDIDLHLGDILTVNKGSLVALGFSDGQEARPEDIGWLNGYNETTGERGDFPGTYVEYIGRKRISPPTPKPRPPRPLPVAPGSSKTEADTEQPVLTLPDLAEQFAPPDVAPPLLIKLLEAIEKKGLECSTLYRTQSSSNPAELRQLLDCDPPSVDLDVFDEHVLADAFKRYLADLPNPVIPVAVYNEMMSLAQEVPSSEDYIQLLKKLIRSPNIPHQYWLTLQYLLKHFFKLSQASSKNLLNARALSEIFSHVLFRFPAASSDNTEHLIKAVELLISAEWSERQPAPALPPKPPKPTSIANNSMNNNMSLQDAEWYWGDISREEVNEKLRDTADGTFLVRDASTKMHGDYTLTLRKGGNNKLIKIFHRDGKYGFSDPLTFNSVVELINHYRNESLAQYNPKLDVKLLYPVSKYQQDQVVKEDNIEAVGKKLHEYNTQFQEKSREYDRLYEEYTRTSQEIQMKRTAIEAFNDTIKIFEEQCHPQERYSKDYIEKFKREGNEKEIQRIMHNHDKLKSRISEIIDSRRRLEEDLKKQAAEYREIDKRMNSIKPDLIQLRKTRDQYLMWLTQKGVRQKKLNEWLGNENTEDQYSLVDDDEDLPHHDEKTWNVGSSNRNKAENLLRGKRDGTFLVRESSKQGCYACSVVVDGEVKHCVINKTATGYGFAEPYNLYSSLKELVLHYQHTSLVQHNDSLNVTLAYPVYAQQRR
T2 sequence (P42336 whole entry): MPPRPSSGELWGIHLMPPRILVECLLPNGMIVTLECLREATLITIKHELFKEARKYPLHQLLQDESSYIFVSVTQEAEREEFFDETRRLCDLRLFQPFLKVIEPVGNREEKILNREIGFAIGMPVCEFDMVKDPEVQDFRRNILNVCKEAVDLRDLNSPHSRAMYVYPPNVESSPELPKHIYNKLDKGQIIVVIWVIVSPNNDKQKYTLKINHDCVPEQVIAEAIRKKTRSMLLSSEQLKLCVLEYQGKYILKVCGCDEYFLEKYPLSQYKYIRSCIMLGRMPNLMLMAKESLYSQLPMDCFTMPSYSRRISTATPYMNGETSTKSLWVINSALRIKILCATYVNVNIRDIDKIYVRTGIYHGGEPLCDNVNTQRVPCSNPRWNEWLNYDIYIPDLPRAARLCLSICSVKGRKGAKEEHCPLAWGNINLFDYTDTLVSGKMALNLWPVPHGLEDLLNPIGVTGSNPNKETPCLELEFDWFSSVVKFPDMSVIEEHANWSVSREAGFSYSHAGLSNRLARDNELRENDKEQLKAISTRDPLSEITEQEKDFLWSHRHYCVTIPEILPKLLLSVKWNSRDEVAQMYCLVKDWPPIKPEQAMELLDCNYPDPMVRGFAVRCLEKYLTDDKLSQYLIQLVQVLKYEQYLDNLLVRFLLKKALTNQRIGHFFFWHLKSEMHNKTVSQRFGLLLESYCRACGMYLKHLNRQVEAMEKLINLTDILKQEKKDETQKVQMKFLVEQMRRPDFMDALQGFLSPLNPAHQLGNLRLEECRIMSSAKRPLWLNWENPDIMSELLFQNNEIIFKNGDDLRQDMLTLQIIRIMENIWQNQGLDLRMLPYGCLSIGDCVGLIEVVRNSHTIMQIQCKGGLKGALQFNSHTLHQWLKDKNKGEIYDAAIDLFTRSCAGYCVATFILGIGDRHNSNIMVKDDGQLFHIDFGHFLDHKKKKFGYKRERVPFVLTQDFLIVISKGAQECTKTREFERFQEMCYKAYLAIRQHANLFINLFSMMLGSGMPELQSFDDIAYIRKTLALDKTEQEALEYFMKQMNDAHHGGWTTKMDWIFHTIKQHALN
T2 sequence (Q63787 whole entry partner): as the sequence (Q63787 whole entry partner) above
T4 sequence (O00329 whole entry): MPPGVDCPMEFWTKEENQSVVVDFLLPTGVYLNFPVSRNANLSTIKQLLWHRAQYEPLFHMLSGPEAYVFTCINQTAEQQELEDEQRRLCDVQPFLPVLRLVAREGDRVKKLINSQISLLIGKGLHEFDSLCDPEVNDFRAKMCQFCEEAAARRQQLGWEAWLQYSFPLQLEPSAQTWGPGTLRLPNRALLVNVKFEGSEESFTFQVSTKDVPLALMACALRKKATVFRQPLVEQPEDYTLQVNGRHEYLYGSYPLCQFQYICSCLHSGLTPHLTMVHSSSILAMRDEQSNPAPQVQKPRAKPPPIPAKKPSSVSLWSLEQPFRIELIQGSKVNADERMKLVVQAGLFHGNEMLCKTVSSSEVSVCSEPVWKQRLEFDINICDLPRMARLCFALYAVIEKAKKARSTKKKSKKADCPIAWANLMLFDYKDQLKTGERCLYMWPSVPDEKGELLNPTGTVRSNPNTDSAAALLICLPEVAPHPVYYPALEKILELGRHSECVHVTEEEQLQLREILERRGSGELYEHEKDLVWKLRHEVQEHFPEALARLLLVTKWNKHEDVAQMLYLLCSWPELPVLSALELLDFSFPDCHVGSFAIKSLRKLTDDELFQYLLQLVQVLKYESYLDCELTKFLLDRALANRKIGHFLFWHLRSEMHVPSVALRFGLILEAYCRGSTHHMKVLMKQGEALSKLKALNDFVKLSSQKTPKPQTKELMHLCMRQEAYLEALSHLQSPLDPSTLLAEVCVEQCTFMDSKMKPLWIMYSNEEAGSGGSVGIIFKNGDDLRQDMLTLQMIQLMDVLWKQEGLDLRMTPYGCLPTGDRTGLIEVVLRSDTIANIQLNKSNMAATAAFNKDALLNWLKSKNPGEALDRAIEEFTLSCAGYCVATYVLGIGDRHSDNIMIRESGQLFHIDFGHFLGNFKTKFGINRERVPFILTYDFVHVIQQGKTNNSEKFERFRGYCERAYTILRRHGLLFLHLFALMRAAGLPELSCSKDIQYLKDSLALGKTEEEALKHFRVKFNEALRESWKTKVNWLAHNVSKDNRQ
T4 sequence (Q63787 whole entry partner): as the sequence (Q63787 whole entry partner) above

Row | SMILES | IC50 (mTOR) [nM] | Score (condensed DNA, G2/M arrest; off-target tubulin binding) (A2058 cells) | IC50 [1] [nM] | IC50 [2] [nM] | IC50 [3] [nM]
1 | Nc1cc(C(F)(F)F)c(-c2cc(N3CCOCC3)nc(N3CCOCC3)n2)cn1 [WO2007/084786 Example 10, reference compound] | 602 | 3 | – | – | –
2 | CC1(CO)COC(=O)N1c1cc(-c2cnc(N)nc2C(F)(F)F)nc(N2CCOCC2)n1 (single isomer, unassigned) [Example 3B, 3-(2′-amino-2-morpholino-4′-(trifluoromethyl)-4,5′-bipyrimidin-6-yl)-4-(hydroxymethyl)-4-methyloxazolidin-2-one] | 1110 | 0 | 215 | 331 | 172
3 | Nc1ncc(-c2cc(N3C(=O)OC[C@@H]3CO)nc(N3CCOCC3)n2)c(C(F)(F)F)n1 [Example 7, (S)-3-(2′-Amino-2-morpholin-4-yl-4′-trifluoromethyl-[4,5′]bipyrimidinyl-6-yl)-4-hydroxymethyl-oxazolidin-2-one] | 1230 | – | 120 | 132 | 70
4 | CC1(CO)COC(=O)N1c1cc(-c2cnc(N)nc2C(F)(F)F)nc(N2CCOCC2)n1 (single isomer, unassigned) [Example 3A, 3-(2′-amino-2-morpholino-4′-(trifluoromethyl)-4,5′-bipyrimidin-6-yl)-4-(hydroxymethyl)-4-methyloxazolidin-2-one] | 1570 | 0 | 176 | 93 | 59
